SMILES strings stand for the structures. Some results are limits rather than exact numbers.

This note sets out measurements from ChEMBL document CHEMBL5465560, “Selectivity Literature for EUbOPEN Chemogenomic Library” (2024).

Assay [1] concerns the target T1, Casein kinase I isoform alpha-like (Homo sapiens) (UniProt Q8N752).
T1 sequence (whole entry): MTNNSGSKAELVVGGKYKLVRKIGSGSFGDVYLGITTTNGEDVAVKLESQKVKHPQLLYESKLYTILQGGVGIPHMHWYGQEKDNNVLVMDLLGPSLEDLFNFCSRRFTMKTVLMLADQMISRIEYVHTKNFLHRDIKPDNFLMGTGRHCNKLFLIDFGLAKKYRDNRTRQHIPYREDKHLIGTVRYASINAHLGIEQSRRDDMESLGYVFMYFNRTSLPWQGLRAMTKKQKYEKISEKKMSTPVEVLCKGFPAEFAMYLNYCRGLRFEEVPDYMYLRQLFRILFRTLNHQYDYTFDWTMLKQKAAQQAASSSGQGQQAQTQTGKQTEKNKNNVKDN
Put plainly: Selectivity interaction (Kinase panel (Z-LYTE Assay)) EUB0001632a CSNK1A1L. The note with it: at 10 µM.

For assay [2], the target named is Mitogen-activated protein kinase 11 (Homo sapiens) (UniProt Q15759). The assay is described as follows: Selectivity interaction (Kinase panel (Z-LYTE Assay)) EUB0001632a MAPK11. The note with it: at 10 µM.
Assay [3] deals with MAP kinase-interacting serine/threonine-protein kinase 1 (Homo sapiens) (UniProt Q9BUB5). Put plainly: Selectivity interaction (Kinase panel (Z-LYTE Assay)) EUB0001632a MKNK1. Particulars: at 10 µM.
Assay [4] concerns the target G protein-coupled receptor kinase 4 (Homo sapiens) (UniProt P32298). Put plainly: Selectivity interaction (Ambit KINOMEscan and KiNATiv profiling in Jurkat cells) EUB0000090b GRK4. Format: cell-based. The note with it: at 1 µM.
In assay [5] the target is Insulin-like growth factor 1 receptor (Homo sapiens, UniProt P08069). Put plainly: Selectivity interaction (Ambit KINOMEscan and KiNATiv profiling in Jurkat cells) EUB0000090b IGF1R. Format: cell-based. The note with it: at 1 µM.
The nature of assay [6]: Selectivity interaction (KinomeScan (DiscoverX)) EUB0000607a CDK2H. The note with it: at 10 µM.
The target in assay [7] is Serine/threonine-protein kinase PRP4 homolog (Homo sapiens) (UniProt Q13523). The assay is described as follows: Selectivity interaction (KinomeScan (DiscoverX)) EUB0000607a PRPF4. The note with it: at 10 µM.
The target in assay [8] is Cyclin-dependent kinase 11B (Homo sapiens) (UniProt P21127). The note with it: at 10 µM.
In assay [9] the target is Glycogen synthase kinase-3 alpha (Homo sapiens, UniProt P49840). The note with it: at 10 µM.
The target in assay [10] is High affinity nerve growth factor receptor (Homo sapiens, UniProt P04629). Particulars: at 10 µM.
Assay [11] addresses BMP-2-inducible protein kinase (Homo sapiens) (UniProt Q9NSY1). The assay is described as follows: Selectivity interaction (KinomeScan (DiscoverX)) EUB0000666a BMP2K. The note with it: at 10 µM.
Assay [12] deals with T2, Tyrosine-protein kinase ZAP-70 (Homo sapiens) (UniProt P43403).
T2 sequence (whole entry): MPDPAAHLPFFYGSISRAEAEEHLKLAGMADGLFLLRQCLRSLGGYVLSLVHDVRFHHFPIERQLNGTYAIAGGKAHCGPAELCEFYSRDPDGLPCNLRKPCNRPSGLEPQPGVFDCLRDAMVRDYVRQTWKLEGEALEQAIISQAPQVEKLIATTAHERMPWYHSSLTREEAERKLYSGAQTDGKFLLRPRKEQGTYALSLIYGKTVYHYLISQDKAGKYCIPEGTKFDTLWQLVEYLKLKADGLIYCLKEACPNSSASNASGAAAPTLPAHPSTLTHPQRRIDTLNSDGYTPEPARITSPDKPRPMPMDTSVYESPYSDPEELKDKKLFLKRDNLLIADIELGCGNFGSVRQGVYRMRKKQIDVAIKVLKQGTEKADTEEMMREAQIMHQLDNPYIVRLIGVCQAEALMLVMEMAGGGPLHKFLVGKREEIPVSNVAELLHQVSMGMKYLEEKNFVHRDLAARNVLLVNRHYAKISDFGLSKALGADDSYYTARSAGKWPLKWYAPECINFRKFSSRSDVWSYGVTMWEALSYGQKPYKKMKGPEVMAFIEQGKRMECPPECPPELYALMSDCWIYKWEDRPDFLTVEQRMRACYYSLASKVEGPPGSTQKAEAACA
Put plainly: Selectivity interaction (KinomeScan (DiscoverX)) EUB0000666a ZAP70. The note with it: at 10 µM.

For assay [13], the target named is Tyrosine-protein kinase ABL2 (Homo sapiens, UniProt P42684). The assay is described as follows: Selectivity interaction (ActivX KiNativ screen (kinase selectivity in THP-1 cell lysates)) EUB0000639a ABL2. Format: subcellular. Particulars: lysate, at 5 µM.
For assay [14], the target named is T3, MAP kinase-activated protein kinase 5 (Homo sapiens) (UniProt Q8IW41).
T3 sequence (whole entry): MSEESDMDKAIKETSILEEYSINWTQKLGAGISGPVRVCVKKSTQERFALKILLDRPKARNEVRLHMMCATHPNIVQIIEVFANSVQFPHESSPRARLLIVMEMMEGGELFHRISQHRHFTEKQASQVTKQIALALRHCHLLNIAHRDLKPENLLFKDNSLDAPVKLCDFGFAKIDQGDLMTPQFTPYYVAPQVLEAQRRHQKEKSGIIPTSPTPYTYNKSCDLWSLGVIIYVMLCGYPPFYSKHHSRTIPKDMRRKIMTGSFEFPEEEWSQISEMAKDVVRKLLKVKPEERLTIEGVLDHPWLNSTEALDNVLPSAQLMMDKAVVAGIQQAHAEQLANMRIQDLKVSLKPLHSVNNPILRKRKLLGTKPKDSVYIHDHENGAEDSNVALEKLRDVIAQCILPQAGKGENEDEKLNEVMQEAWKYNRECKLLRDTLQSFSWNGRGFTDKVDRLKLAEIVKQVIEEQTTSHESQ
The assay is described as follows: Selectivity interaction (Kinase panel (Invitrogen)) EUB0000639a MAPKAPK5. Particulars: at 200 nM.

Assay [15] concerns the target Serine/threonine-protein kinase pim-1 (Homo sapiens, UniProt P11309). Put plainly: Selectivity interaction (KinomeScan (DiscoverX)) EUB0000045b PIM1.
The next assay addresses Insulin receptor (Homo sapiens, UniProt P06213). The assay is described as follows: Selectivity interaction (Kinase panel (enzymatic assay)) EUB0000595a INSR.
In assay [16] the target is Ribosomal protein S6 kinase alpha-6 (Homo sapiens, UniProt Q9UK32). The assay is described as follows: Selectivity interaction (KinomeScan (DiscoverX)) EUB0000595a RPS6KA6. Particulars: at 10 µM.

Serine/threonine-protein kinase pim-1, sequence (P11309 whole entry, looked up): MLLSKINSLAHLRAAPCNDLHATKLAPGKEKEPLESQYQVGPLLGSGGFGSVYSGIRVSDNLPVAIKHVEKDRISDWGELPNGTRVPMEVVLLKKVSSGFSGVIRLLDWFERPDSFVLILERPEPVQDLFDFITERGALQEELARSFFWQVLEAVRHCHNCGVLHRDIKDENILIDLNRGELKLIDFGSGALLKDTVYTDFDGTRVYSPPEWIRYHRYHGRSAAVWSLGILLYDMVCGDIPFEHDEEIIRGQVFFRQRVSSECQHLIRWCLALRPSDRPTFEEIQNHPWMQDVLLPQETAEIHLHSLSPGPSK
Serine/threonine-protein kinase PRP4 homolog (Homo sapiens), sequence (Q13523 whole entry): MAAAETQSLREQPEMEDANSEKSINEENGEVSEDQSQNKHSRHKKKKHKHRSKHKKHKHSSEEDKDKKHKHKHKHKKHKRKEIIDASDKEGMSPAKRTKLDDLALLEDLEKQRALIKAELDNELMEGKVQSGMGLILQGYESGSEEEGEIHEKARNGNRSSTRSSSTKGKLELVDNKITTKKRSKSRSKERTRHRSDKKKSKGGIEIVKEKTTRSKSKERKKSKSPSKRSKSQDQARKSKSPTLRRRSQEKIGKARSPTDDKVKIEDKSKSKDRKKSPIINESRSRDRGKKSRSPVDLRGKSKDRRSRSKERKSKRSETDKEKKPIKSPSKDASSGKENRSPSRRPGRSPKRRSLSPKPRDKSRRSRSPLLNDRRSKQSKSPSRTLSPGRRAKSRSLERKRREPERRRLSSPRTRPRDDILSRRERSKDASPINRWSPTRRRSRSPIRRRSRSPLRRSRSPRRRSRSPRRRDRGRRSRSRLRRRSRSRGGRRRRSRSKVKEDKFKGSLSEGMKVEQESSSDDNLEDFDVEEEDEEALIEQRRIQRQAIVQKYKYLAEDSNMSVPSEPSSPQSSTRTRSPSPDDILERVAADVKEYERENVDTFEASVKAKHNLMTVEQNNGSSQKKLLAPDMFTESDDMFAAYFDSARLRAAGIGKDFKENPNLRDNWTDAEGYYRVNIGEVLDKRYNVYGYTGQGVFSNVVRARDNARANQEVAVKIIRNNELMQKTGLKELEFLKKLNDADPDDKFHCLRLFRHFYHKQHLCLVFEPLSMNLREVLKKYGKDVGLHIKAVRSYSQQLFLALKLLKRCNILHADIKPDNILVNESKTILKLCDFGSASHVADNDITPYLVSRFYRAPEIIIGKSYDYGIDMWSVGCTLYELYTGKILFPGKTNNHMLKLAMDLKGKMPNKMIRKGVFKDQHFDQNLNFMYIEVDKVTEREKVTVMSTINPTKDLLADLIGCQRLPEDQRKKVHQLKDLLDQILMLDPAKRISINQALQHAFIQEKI
Cyclin-dependent kinase 11B (Homo sapiens), sequence (P21127 whole entry): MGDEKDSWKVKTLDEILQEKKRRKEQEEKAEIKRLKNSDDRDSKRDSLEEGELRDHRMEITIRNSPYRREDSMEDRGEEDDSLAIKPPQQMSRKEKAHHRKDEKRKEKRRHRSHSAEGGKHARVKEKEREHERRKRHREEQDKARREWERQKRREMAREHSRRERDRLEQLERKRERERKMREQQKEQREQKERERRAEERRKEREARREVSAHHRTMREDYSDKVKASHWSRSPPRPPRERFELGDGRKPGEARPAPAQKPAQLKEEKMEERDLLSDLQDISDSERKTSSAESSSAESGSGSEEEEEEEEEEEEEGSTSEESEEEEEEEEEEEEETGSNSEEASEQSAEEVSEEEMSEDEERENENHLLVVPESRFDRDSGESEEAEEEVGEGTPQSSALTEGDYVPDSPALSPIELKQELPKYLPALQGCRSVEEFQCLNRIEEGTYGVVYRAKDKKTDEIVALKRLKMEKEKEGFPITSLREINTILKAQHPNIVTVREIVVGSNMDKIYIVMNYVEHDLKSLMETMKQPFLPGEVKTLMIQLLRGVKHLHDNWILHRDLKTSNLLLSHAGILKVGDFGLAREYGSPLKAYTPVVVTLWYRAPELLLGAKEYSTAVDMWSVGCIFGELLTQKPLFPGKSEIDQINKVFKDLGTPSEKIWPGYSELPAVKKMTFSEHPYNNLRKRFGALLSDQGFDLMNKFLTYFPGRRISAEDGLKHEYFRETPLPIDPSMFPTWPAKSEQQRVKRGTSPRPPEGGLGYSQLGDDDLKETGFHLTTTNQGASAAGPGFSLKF
Tyrosine-protein kinase ABL2, sequence (P42684 whole entry): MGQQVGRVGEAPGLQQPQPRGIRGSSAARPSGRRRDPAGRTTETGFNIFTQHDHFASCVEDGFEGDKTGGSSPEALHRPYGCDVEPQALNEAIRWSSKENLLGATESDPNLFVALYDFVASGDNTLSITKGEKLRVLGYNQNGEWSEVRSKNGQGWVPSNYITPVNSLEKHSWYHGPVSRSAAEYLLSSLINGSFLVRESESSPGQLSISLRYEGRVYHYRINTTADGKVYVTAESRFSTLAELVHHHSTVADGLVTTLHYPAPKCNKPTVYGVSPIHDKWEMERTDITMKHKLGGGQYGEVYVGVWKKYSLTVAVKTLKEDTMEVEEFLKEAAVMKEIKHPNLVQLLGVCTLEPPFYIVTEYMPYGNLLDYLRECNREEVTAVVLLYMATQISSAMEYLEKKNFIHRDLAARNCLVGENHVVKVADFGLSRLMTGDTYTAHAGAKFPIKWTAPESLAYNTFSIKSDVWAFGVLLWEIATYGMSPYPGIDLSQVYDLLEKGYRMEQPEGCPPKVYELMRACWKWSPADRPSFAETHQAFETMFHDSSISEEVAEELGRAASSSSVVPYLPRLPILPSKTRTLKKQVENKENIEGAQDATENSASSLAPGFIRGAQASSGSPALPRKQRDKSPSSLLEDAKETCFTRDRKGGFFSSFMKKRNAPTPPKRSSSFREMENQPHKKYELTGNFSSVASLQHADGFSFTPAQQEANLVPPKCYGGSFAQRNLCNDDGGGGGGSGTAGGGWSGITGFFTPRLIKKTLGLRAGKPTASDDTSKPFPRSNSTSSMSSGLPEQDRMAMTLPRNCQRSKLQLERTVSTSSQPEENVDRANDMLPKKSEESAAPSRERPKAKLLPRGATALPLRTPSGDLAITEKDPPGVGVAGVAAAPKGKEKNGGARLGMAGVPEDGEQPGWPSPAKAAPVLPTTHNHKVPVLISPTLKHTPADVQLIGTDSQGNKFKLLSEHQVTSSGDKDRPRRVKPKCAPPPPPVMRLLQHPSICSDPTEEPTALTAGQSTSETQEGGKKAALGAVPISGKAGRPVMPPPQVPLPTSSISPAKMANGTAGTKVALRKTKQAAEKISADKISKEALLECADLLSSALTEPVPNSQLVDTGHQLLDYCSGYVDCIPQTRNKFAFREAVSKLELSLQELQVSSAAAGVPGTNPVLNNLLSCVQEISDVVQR
BMP-2-inducible protein kinase (Homo sapiens), sequence (Q9NSY1 whole entry, looked up): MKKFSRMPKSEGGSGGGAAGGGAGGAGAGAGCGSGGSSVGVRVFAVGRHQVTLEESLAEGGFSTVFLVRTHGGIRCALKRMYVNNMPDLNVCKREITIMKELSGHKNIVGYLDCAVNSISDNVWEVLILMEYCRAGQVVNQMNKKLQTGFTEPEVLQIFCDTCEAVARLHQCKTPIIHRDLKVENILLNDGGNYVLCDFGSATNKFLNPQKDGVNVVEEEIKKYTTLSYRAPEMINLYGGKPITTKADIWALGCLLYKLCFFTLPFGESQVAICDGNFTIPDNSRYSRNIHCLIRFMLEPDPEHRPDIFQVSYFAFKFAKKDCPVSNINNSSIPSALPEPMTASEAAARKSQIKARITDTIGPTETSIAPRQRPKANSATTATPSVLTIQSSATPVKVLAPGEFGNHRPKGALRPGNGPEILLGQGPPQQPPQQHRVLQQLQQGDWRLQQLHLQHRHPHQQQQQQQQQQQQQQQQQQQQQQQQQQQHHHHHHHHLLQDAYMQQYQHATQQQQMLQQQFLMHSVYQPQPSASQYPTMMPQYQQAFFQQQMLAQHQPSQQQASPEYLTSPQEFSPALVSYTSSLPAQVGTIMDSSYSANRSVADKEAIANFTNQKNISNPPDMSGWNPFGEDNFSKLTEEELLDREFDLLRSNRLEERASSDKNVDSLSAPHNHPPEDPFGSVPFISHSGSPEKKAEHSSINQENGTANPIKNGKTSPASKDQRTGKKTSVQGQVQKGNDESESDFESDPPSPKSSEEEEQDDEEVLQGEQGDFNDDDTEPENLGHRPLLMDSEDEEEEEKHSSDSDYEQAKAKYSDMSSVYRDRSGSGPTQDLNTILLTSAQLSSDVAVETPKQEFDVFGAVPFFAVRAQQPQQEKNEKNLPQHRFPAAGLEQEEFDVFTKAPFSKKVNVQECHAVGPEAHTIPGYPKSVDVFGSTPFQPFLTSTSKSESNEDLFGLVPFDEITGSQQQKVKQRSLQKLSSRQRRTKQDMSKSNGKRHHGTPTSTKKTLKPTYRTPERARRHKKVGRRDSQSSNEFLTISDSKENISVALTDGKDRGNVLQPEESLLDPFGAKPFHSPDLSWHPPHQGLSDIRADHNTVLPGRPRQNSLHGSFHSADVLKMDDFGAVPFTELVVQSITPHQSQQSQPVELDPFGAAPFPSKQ
G protein-coupled receptor kinase 4 (Homo sapiens), sequence (P32298 whole entry, looked up): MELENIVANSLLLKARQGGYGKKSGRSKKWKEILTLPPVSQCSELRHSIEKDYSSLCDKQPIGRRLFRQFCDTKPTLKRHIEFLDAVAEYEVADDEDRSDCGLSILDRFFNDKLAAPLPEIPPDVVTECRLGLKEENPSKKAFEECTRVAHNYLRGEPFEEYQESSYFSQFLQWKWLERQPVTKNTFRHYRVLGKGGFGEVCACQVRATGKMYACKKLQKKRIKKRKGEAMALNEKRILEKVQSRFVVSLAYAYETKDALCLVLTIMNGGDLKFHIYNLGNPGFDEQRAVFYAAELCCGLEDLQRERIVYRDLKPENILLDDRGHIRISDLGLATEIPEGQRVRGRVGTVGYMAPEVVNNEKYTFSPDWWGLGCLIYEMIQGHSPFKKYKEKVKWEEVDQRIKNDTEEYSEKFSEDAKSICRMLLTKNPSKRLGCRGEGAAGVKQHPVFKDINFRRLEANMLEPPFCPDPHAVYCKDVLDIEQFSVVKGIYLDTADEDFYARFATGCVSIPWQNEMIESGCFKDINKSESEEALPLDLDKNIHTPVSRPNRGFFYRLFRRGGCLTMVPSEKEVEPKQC

Regarding `Cn1cc(-n2cnc3c(NCc4nc5cc(Cl)c(Cl)cc5[nH]4)nc(N4CCOCC4)nc32)cn1`, the figures for the % of control in [1], in [2] and in assay [3] were -0.03%, 1.54% and 2.99%, respectively.
Consider `CN(C)C/C=C/C(=O)Nc1ccc(C(=O)N2CCCC(Nc3ncc(Cl)c(-c4c[nH]c5ccccc45)n3)C2)cc1` (stereo not drawn), for which the % of control in assay [4] amounted to 99%; in assay [5] it was 91%.
Regarding `CNC(=O)Nc1ccc(-c2nc(N3CC4CCC(C3)O4)c3cnn(C4CCC5(CC4)OCCO5)c3n2)cc1`, the values for the % of control in [6] and in assay [7] were 100% and 70%, respectively.
As for `Cc1cc([C@@H](C)Nc2ccccc2C(=O)O)c2nc(N3CCOCC3)cc(=O)n2c1` [AZD-6482], the % of control in assay [8] turned out to be 100%; in [9], 100%; in assay [10] it was 88%.
With `O=C(NOC[C@H](O)CO)c1ccc(F)c(F)c1Nc1ccc(I)cc1F`, the % of control is 91% in assay [11] and 89% in [12].
On to `CC[C@@H]1[C@H](F)C(=O)N[C@@H]1COc1nccc2cc(C(N)=O)c(OC)cc12` [ZIMLOVISERTIB], for which the % of inhibition in [13] was determined as 30.7%; in [14] it was 8.71%.
With `C=CC(=O)Nc1cc(-n2c(=O)ccc3cnc4ccc(-c5ccc(NS(C)(=O)=O)cc5)cc4c32)ccc1C`, the % of control in assay [15] (at 1 µM) turned out to be 100%; in assay [15] (at 10 µM), 86%.
As to `COCC(=O)NC/C=C/c1ccc2ncnc(Nc3ccc(Oc4ccc(C)nc4)c(C)c3)c2c1` [CP-724714], on Insulin receptor, the IC50 is above 10 µM. In addition, in [16], the % of control was 88%.

The term IC50 denotes the point on the concentration scale where inhibition reaches its midpoint.
